Assay results: patent US20130123460A1, “PEPTIDE FOR IMPROVING BIOSTABILITY OF BIOACTIVE SUBSTANCE, AND BIOACTIVE SUBSTANCE HAVING IMPROVED BIOSTABILITY” (priority 2010, published 2013)
Where a SMILES comes first, the peptide text is derived from it. Bridges are numbered along the chain shown (N, C = ends).

How the values were obtained:
db/db mice = experiment: Sustained blood glucose-lowering effect in type 2 diabetes mellitus model mice; format: in vivo; settings: subcutaneous, 50 nmol/kg
Method: The improvement of the biostability was evaluated using a duration time of blood glucose-lowering effect in vivo as an indicator. […] The blood glucose level was measured using Glucose Test Wako (Wako Pure Chemical Industries, Ltd.).

[1] = Plasma stability of ghrelin peptide complex (remaining rate in rat plasma); format: in vitro ADME, SD rats; settings: 37° C.
Method: Evaluation was performed in a manner in which after the treatment of the ghrelin or ghrelin peptide complex in plasma for a pre-determined time, an amount of change of the ghrelin or ghrelin peptide complex undecomposed was measured by an HPLC/MS.

endogenous SSTR 5 = molecular target: T1, endogenous SSTR 5 (Mus musculus, UniProt O08858); experiment: Suppressibility of insulin secretion in MIN 6 cells; format: cell-based; settings: 20 mM glucose, 1-1000 nM
T1 construct: expressing an endogenous SSTR 5; endogenous in cells; host or cells: MIN 6 mouse insulinoma cells (obtained from a person)
T1 sequence (O08858 1-362): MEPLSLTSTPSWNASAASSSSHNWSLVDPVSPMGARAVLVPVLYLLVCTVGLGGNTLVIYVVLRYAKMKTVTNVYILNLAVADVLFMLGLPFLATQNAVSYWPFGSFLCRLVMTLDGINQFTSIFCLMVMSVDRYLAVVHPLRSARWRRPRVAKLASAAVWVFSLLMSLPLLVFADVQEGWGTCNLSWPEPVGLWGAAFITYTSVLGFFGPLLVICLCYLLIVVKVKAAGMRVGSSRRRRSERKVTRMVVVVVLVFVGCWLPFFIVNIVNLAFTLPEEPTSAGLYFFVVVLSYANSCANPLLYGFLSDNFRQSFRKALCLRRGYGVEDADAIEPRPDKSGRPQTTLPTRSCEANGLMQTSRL
Method: The suppressibility of insulin secretion was evaluated using MIN 6 (obtained from a person) which was an insulinoma cell derived from a mouse, expressing an endogenous SSTR 5. MIN 6 was seeded on a multi-plate, which was cultivated at 37° C. for 48 hours. […] A supernatant thereof was recovered, and an amount of insulin secreted was measured. The measurement of the insulin was performed in an enzyme-linked immunosorbent assay (ELISA), and an absorbance was measured at 450 nm (a sub-wavelength: 620 nm) after the addition of a substrate.
In this experiment, the activity evaluations of the native SRIF (Comparative Example 15) and the GAm (28-44)-SRIF-NH2(Example 29) were performed in a concentration of 1, 3, 10, 30, 100, 300, and 1000 nM, and the maximum suppression rate (%) of the insulin secretion was calculated. The maximum suppression rate (%) of the insulin secretion in the somatostatin peptide complex was calculated according to the following formula. Maximum Suppression Rate (%) of Insulin Secretion (%)=[{(the maximum value of the suppression of the insulin secretion in the SRIF peptide complex)/(the maximum value of the suppression of the insulin secretion in the native SRIF)]×100

[2] = Plasma stability of somatostatin peptide complex (remaining rate in rat plasma); settings: for remaining at 8 h, 0.5 μmol/L / remaining at 48 h, 0.5 μmol/L: SD, rat, plasma
Method: (§1) The plasma stability was evaluated in vitro, in order to inspect the biostability of the somatostatin peptide complex.
(§2) SD rats were anesthetized with diethyl ether, whole blood was collected, and a plasma fraction was separated therefrom. The somatostatin or somatostatin peptide complex was added to the plasma so that the final concentration thereof was 0.5 μmol/L, and the mixture was incubated at 37° C. A sample was recovered after 0, 8 or 48 hours, and a remaining rate was evaluated by an HPLC/MS measurement of an amount of the somatostatin or somatostatin peptide complex.

in vitro = settings: SD, rat, plasma
Method: as §1, §2

[3] = somatostatin complexes, rat plasma, 0.5 μmol/L, 37° C.

Suppression rate of insulin secretion (%), maximum, relative to native SRIF (endogenous SSTR 5) | remaining at 8 h, 0.5 μmol/L [2] | remaining at 48 h, 0.5 μmol/L [2] | Remaining rate in plasma after 8 hours (%) [2, 3] | Compound | other results
100% | 0% | 0% | completely decomposed | C[C@H](N)C(=O)NCC(=O)N[C@H]1CSSC[C@@H](C(N)=O)NC(=O)[C@H](CO)NC(=O)[C@H]([C@@H](C)O)NC(=O)[C@H](Cc2ccccc2)NC(=O)[C@H]([C@@H](C)O)NC(=O)[C@H](CCCCN)NC(=O)[C@H](Cc2c[nH]c3ccccc23)NC(=O)[C@H](Cc2ccccc2)NC(=O)[C@H](Cc2ccccc2)NC(=O)[C@H](CC(N)=O)NC(=O)[C@H](CCCCN)NC1=O [Comparative Example 15, SRIF(1-14)-NH2, reference compound] | 
90% | 80% | 23% | 80% | CC[C@H](C)[C@H](NC(=O)[C@H](CCC(=O)O)NC(=O)[C@H](CC(=O)O)NC(=O)[C@@H](NC(=O)[C@H](CC(C)C)NC(=O)[C@H](C)NC(=O)[C@H](CCCCN)NC(=O)[C@@H](NC(=O)CNC(=O)[C@H](CCC(=O)O)NC(=O)[C@@H](NC(=O)[C@@H](NC(=O)[C@H](CCCCN)NC(=O)[C@H](C)N)[C@@H](C)O)C(C)C)C(C)C)[C@@H](C)CC)C(=O)N[C@@H](CC(C)C)C(=O)N[C@@H](C)C(=O)N[C@@H](C)C(=O)N[C@@H](C)C(=O)NCC(=O)N[C@H]1CSSC[C@@H](C(N)=O)NC(=O)[C@H](CO)NC(=O)[C@H]([C@@H](C)O)NC(=O)[C@H](Cc2ccccc2)NC(=O)[C@H]([C@@H](C)O)NC(=O)[C@H](CCCCN)NC(=O)[C@H](Cc2c[nH]c3ccccc23)NC(=O)[C@H](Cc2ccccc2)NC(=O)[C@H](Cc2ccccc2)NC(=O)[C@H](CC(N)=O)NC(=O)[C@H](CCCCN)NC1=O [Example 29, GAm(28-44)-SRIF(1-14)-NH2] (H-AKTVEGVKALIDEILAAAGCKNFFWKTFTSC-NH2; disulfide 20-31; N-terminus assumed) | Remaining rate in plasma after 48 hours (%) ([2]; somatostatin complexes, rat plasma, 0.5 μmol/L, 37° C., 48 hours): 23%

Continued, compound first:

Compound | Suppression rate of insulin secretion (%), maximum, relative to native SRIF (endogenous SSTR 5) | remaining at 8 h, 0.5 μmol/L [2] | remaining at 48 h, 0.5 μmol/L [2] | Remaining rate in plasma after 8 hours (%) [2, 3] | other results
[Ser8]-GLP-1(7-36)-NH2 [Comparative Example 2] |  |  |  |  | Time after administration at which the glucose-lowering effect disappeared (db/db mice): two hours
CCCCCCCC(=O)OC[C@H](NC(=O)[C@H](CO)NC(=O)CN)C(=O)N[C@@H](Cc1ccccc1)C(=O)N[C@@H](CC(C)C)C(=O)N[C@@H](CO)C(=O)N1CCC[C@H]1C(=O)N[C@@H](CCC(=O)O)C(=O)N[C@@H](Cc1c[nH]cn1)C(=O)N[C@@H](CCC(N)=O)C(=O)N[C@@H](CCCNC(=N)N)C(=O)N[C@H](C(=O)N[C@@H](CCC(N)=O)C(=O)N[C@@H](CCC(N)=O)C(=O)N[C@@H](CCCNC(=N)N)C(=O)N[C@@H](CCCCN)C(=O)N[C@@H](CCC(=O)O)C(=O)N[C@@H](CO)C(=O)N[C@@H](CCCCN)C(=O)N[C@@H](CCCCN)C(=O)N1CCC[C@H]1C(=O)N1CCC[C@H]1C(=O)N[C@@H](C)C(=O)N[C@@H](CCCCN)C(=O)N[C@@H](CC(C)C)C(=O)N[C@@H](CCC(N)=O)C(=O)N1CCC[C@H]1C(=O)N[C@@H](CCCNC(=N)N)C(N)=O)C(C)C [Comparative Example 17, Ghrelin(1-28)-NH2] |  |  |  |  | Remaining rate in plasma after 2 hours (%) ([1]; 0.5 μmol/L, 2 hours): 14%; remaining at 0.5 h, 0.5 μmol/L ([1]; SD, 0.5 hour, read-out: Remaining rate in plasma after 0.5 hour (%)): 50%; remaining at 2 h, 0.5 μmol/L ([1]; SD, 2 hours, read-out: Remaining rate in plasma after 2 hours (%)): 14%; remaining at 8 h, 0.5 μmol/L ([1]; SD, 8 hours, read-out: Remaining rate in plasma after 8 hours (%)): 0%
CC[C@H](C)[C@H](NC(=O)[C@H](CCC(=O)O)NC(=O)[C@H](CC(=O)O)NC(=O)[C@@H](NC(=O)[C@H](CC(C)C)NC(=O)[C@H](C)NC(=O)[C@H](CCCCN)NC(=O)[C@@H](NC(=O)CNC(=O)[C@H](CCC(=O)O)NC(=O)[C@@H](NC(=O)[C@@H](NC(=O)[C@H](CCCCN)NC(=O)[C@H](C)NC(=O)[C@@H]1CSSC[C@H](NC(=O)CNC(=O)[C@H](C)N)C(=O)N[C@@H](CCCCN)C(=O)N[C@@H](CC(N)=O)C(=O)N[C@@H](Cc2ccccc2)C(=O)N[C@@H](Cc2ccccc2)C(=O)N[C@@H](Cc2c[nH]c3ccccc23)C(=O)N[C@@H](CCCCN)C(=O)N[C@@H]([C@@H](C)O)C(=O)N[C@@H](Cc2ccccc2)C(=O)N[C@@H]([C@@H](C)O)C(=O)N[C@@H](CO)C(=O)N1)[C@@H](C)O)C(C)C)C(C)C)[C@@H](C)CC)C(=O)N[C@@H](CC(C)C)C(=O)N[C@@H](C)C(=O)N[C@@H](C)C(N)=O [Example 28, SRIF(1-14)-GAm(28-44)-NH2] (H-AGCKNFFWKTFTSCAKTVEGVKALIDEILAA-NH2; disulfide 3-14; N-terminus assumed) |  |  |  |  | remaining at 8 h, 0.5 μmol/L (in vitro): 56%; remaining at 48 h, 0.5 μmol/L (in vitro): 0%
